We go through seven compounds from patent publication US9750733B2, “Compounds for preventing and/or treating lysosomal storage disorders and/or degenerative disorders of the central nervous system” (Amicus Therapeutics, Inc., priority 2012, dated 2017).

Counter-ions that a name gives are not always drawn.

Data set [1] in a line: Physical stability under stress and ambient conditions. Type of data set: physicochemical. The text has this: (§1) The hydrochloride and fumarate Forms B, B2 and B3 salts of (3R,4R,5S)-5-(difluoromethyl)piperidine-3,4-diol were also found to be hygroscopic.
Data set [2] in a line: Dynamic vapor sorption (DVS) hygroscopicity analysis. Type of data set: physicochemical. To be noted: for Hygroscopicity (% water uptake up to 45% relative humidity): DVS, 25° C., 60 minutes hold per 10% step in relative humidity, weight increase as percentage of material weight. Here is the method:
Differences in hygroscopicity (moisture uptake) of the various forms of a solid material provide a measure of their relative stability at increasing relative humidity. Dynamic vapor sorption (DVS) analysis was performed for (3R,4R,5S)-5-(difluoromethyl)piperidine-3,4-diol, (3R,4R,5S)-5-(difluoromethyl)piperidine-3,4-diol fumarate Form A, (3R,4R,5S)-5-(difluoromethyl)piperidine-3,4-diol fumarate Form 1B and (3R,4R,5S)-5-(difluoromethyl)piperidine-3,4-diol tosylate. Moisture sorption isotherms for samples of each salt and the free base were obtained using a DVS-1 system from Surface Measurement Systems (London, UK). The relative humidity was cycled from 45% to 95% (sorption), back to 0% (desorption) and back to 45% (sorption) at a constant temperature of 25° C. with a hold time of 60 minutes per each 10% step in relative humidity. The increase in weight due to moisture uptake was measured as a percentage of the weight of the material.

The target of data set [3] is T1, β-glucocerebrosidase (Homo sapiens, UniProt P04062).
T1 sequence (P04062 40-536): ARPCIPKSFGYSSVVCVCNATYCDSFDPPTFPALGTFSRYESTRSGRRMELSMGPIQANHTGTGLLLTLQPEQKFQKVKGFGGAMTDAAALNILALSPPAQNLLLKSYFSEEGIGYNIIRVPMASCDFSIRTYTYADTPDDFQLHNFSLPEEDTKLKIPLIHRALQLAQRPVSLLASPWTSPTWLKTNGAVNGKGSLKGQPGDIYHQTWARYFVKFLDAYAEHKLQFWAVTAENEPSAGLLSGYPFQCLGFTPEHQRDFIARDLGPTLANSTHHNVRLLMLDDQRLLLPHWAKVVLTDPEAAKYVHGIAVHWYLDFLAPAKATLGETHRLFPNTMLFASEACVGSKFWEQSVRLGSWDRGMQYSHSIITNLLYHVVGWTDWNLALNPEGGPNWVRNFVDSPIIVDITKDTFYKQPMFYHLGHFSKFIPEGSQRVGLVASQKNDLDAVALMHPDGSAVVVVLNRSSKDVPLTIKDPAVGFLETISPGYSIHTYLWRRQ
To be noted: as described in US 2011/0091442 and 2011/0092541; cited from earlier work.

Data set [4] can be described thus: Separate dynamic vapor sorption test (hydrochloride salt). Type of data set: physicochemical.
Source text: as §1

As for `O=C(O)/C=C/C(=O)O.O[C@H]1[C@H](O)CNC[C@@H]1C(F)F` [fumarate Form B, (3R,4R,5S)-5-(difluoromethyl) piperidine-3,4-diol fumarate Forms B, B2 and B3], in data set [1], the “Hygroscopicity (in words)” value is on record as “hygroscopic”; the “Physical state after one day at 40° C. and 75% relative humidity” value is recorded as “became deliquescent”.

Turning to `O=C(O)/C=C/C(=O)O.O[C@H]1[C@H](O)CNC[C@@H]1C(F)F` [Fumarate Form 1B, (3R,4R,5S)-5-(difluoromethyl) piperidine-3,4-diol fumarate Form 1B], the “Hygroscopicity (% water uptake up to 45% relative humidity)” value in data set [2] turned out to be 0.497%. In addition, the “Hygroscopicity of the salt relative to the free base (fold lower than free base)” value in data set [2] (comparison of the Table 6 DVS values) was “roughly 20 fold”.

With `O[C@H]1[C@H](O)CNC[C@@H]1C(F)F` [Free Base, (3R,4R,5S)-5-(difluoromethyl)piperidine-3,4-diol], in data set [2], the “Hygroscopicity (% water uptake up to 45% relative humidity)” value is 9.3%. Also, in data set [3], the “Inhibition of β-glucocerebrosidase (in words)” value is “potent and selective inhibitors”.

For `O[C@H]1[C@H](O)CNC[C@@H]1C(F)F` [Fumarate Form A, (3R,4R,5S)-5-(difluoromethyl)piperidine-3,4-diol fumarate Form A], the “Hygroscopicity (% water uptake up to 45% relative humidity)” value in data set [2] amounted to 0.09%. Moreover, the “Physical state after one day at 40° C. and 75% relative humidity” value in data set [1] was “physically stable”. In addition, the “Physical stability in slurries” value in data set [1] (slurries at 10° C. and 30° C. in a variety of organic solvents) is recorded as “physically stable”. Besides, the “Physical stability on wet grinding” value in data set [1] (wet grinding for 60 minutes at 30 Hz) was “physically stable”.

As to `Cc1ccc(S(=O)(=O)O)cc1.O[C@H]1[C@H](O)CNC[C@@H]1C(F)F` [Tosylate, (3R,4R,5S)-5-(difluoromethyl)piperidine-3,4-diol tosylate], the “Hygroscopicity (% water uptake up to 45% relative humidity)” value in data set [2] was 0.08%.

`O=C(O)/C=C/C(=O)O.O[C@H]1[C@H](O)CNC[C@@H]1C(F)F` [fumarate Form B3, (3R,4R,5S)-5-(difluoromethyl) piperidine-3,4-diol fumarate Form B3]: in data set [1] (at least one day at ambient conditions (room temperature)), the “Stability at ambient conditions” value is “remained stable”.

In the case of `Cl.O[C@H]1[C@H](O)CNC[C@@H]1C(F)F` [hydrochloride, (3R,4R,5S)-5-(difluoromethyl)piperidine-3,4-diol hydrochloride], in data set [4], the “Relative humidity after which the salt became deliquescent” value is greater than 60 % relative humidity. The “Hygroscopicity (in words)” value in data set [1] is reported as “hygroscopic”. For the same compound, the “Inhibition of β-glucocerebrosidase (in words)” value in data set [3] is “potent and selective inhibitors”.
